pEC50: −log10 of the molar value.
What was measured:
CAL-51 cells = experiment: CAL-51 Cell Proliferation Assay; type: cell-based; details: for pEC50: Homo sapiens, 120 hours incubation, 10-point dose response, 4-fold dilutions starting at 10 μM, Cell-Titer-Glo, read-out: CAL-51 Prolif EC50; for CAL-51 Prolif Ymin: minimal percent of DMSO control observed in the concentrations tested (Ymin-obs), 120 hours
Excerpt: CAL-51 cells were obtained from Bristol Myers Squibb internal cell banks (originally sourced from DSMZ-German Collection of Microorganisms and Cell Cultures GmbH, Germany) and cultured in RPMI complete media (RPMI-1640, 10% Fetal Bovine serum, 1× Antibiotic-Antimycotic, and 1× Non-Essential Amino Acids). Compounds were dispensed into 384-well plates using an acoustic dispenser (Beckman Coulter Life Sciences, Carlsbad, CA) in duplicate with 14 compounds on each plate. For each compound, a 10-point dose response was printed at 4-fold dilutions starting at 10 μM. The DMSO concentration was kept constant for a final assay concentration of 0.1% per well assuming 50 uL final media volume. Compound plates were sealed and frozen at −20° C. until use.
For each assay batch, compound plates were thawed and allowed to reach room temperature, and cells were seeded at 350 cells per well in 50 μl complete RPMI media. After 120 hours of incubation at 37° C. and 5% CO2, cells were lysed by addition of 25 μL of Cell-Titer-Glo Reagent (Promega Corporation, Madison, WI), as per manufacturer's instructions, protected from light, shaken for 20 minutes, and total luminescence read by a CLARIOstar Plus plate reader (BMG LabTech, Cary, NC). Total luminescence signal is linearly correlated with cell number remaining in the well.
Luminescence data was processed per plate by subtracting reagent-only “blank” well luminescence from all measured values and calculating a percent of DMSO control value for each treatment well. Then, to determine the half-maximal effective concentration (EC50) values for cell growth inhibition, a four parameter logistic model was fit to the data for each DMSO-normalized compound: Sigmoidal Dose-Response Model: (FIT=(A+((B−A)/1+((C/x)^D)))) where C is the inflection point (EC50), D is the Hill slope, and A and B are the low and high limits of the fit respectively. The lower limit of the fit (value A) is referred to as Ymin-calculated. The minimal percent of DMSO control that is observed in the concentrations tested for each compound is labeled as “Ymin-obs”, and was recorded and reported in the tables. Sigmoidal fit curves were processed and evaluated using Dotmatics Atlas (Insightful Science, LLC, Boston, MA).

FAK = target: T1, FAK (Homo sapiens, UniProt Q05397); experiment: FAK-HiBiT Degradation Assay; type: cell-based; details: for DC50: JHH-4-FAK-HiBiT clone d01 cells, two hours incubation, 10-point dose response, 3-fold dilution starting at 1 μM, Nano-Glo HiBiT luminescence, read-out: FAK HiBiT EC50; for FAK HiBiT Ymin: lower limit of the four parameter fit (value A), Ymax derived using DMSO control, JHH-4-FAK-HiBiT cells, two hours
T1 construct: homozygous knock-in of a HiBiT tag (Promega Corporation, Madison, WI) to the C-terminus of the FAK gene in its natural genomic locus; endogenous in cells; host or cells: JHH-4-FAK-HiBiT clone d01 (CRISPR-Cas9 knock-in at the endogenous locus)
Excerpt: To generate JHH-4-FAK-HiBiT cells for the FAK degradation assay, JHH-4 cells (Japanese Collection of Research Biosources Cell Bank, Japan) were transfected with ribonucleoprotein reagents to introduce, by CRISPR-Cas9 editing, the homozygous knock-in of a HiBiT tag (Promega Corporation, Madison, WI) to the C-terminus of the FAK gene in its natural genomic locus. Clonal cell populations were established by expanding single cells after CRISPR-Cas9 editing, with a clonal cell line named JHH-4-FAK-HiBiT clone d01 confirmed by next generation DNA sequencing to contain the expected HiBiT edited FAK gene and was selected for FAK degradation screening. Cells were selected and maintained in complete DMEM media (DMEM, 10% Heat Inactivated FBS, and Non-Essential Amino Acids at 37° C. and 5% CO2). Cells were passaged every 3-4 days by reseeding 0.5×10^6 cells in a T75 flask.
Cells were dispensed into 384-well white plates (Corning #3570, NY) that were pre-spotted with compounds using an acoustic dispenser (Echo acoustic transfer system, Beckman Coulter Life Sciences, Carlsbad, CA) as a 10-point dose response curve with a 3-fold dilution starting at 1 μM and including a DMSO control. Twenty-five microliters of media containing 2000 JHH-4-FAK-HiBiT Clone d01 cells was dispensed per well. Assay plates were incubated at 37° C. with 5% CO2 for two hours. After incubation, 25 μL of Nano-Glo HiBiT Lytic Reagent Working Solution (Promega Corporation, Madison, WI) was added to each well and incubated at room temperature for 10 minutes protected from light. After 10 minutes, luminescence was read on a PHERAstar luminometer (BMG Labtech, Cary, NC).
To determine the half-maximal effective concentration (EC50) values for FAK-HiBIT degradation, a four parameter logistic model was used: (Sigmoidal Dose-Response Model)(FIT=(A+((B−A)/1+((C/x)^D)))) where C is the inflection point (EC50), D is the Hill slope, and A and B are the low and high limits of the fit respectively). The lower limit of the fit (value A) is referred to as Ymin. The maximum limit constraint, Ymax, was derived using DMSO control. The curves were processed and evaluated using Dotmatics Atlas (Insightful Science, LLC, Boston, MA).

T1 sequence (Q05397 whole entry): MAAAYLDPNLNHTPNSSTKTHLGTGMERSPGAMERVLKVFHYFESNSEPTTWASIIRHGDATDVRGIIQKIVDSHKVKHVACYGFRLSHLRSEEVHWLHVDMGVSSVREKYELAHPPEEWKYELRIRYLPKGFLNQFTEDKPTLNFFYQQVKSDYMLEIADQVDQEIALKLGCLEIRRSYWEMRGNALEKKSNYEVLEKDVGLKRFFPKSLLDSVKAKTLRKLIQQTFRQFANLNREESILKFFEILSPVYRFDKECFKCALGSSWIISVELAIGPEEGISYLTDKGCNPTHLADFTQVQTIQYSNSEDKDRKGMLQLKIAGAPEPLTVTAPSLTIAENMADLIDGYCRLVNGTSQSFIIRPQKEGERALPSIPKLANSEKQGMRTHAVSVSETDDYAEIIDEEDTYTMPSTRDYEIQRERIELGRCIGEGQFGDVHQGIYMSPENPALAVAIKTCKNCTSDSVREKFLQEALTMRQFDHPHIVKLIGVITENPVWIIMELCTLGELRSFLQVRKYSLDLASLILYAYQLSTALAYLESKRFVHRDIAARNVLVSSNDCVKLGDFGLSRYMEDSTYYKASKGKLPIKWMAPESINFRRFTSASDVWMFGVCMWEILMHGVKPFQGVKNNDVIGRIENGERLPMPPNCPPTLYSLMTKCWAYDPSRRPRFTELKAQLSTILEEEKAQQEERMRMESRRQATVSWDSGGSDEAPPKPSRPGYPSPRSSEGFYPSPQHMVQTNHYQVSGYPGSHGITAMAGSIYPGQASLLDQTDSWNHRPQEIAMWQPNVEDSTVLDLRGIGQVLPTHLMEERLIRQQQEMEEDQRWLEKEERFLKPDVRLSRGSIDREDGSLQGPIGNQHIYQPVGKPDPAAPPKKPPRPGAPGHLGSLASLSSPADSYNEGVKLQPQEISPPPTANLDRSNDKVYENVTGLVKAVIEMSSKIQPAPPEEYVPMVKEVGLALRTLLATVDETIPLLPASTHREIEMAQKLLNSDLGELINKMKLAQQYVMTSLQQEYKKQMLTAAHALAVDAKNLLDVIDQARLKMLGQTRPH

For `CN(c1cc(-c2ncc(C(F)(F)F)cc2Cl)c2cnn(Cc3ccc4c(c3)CN([C@H]3CCC(=O)NC3=O)C4=O)c2n1)C1CC(C)(O)C1` (stereo partly drawn) [Example 83, (3S)-3-[5-({4-[3-chloro-5-(trifluoromethyl)pyridin-2-yl]-6-{methyl[(1r,3s)-3-hydroxy-3-methylcyclobutyl]amino}-1H-pyrazolo[3,4-b]pyridin-1-yl}methyl)-1-oxo-2,3-dihydro-1H-isoindol-2-yl]piperidine-2,6-dione], the pEC50 (CAL-51 cells) was 8.27, the “CAL-51 Prolif Ymin” value (CAL-51 cells) was 30.14 and the DC50 (FAK) was 10.2 nM. The “FAK HiBiT Ymin” value (FAK) was 10.27.

`CN(c1cc(-c2ncc(C(F)(F)F)cc2Cl)c2cnn(Cc3ccc4c(c3)CN([C@H]3CCC(=O)NC3=O)C4=O)c2n1)[C@H]1C[C@H](O)C1` [Example 81, (3S)-3-[5-({4-[3-chloro-5-(trifluoromethyl)pyridin-2-yl]-6-{methyl[(1r,3r)-3-hydroxycyclobutyl]amino}-1H-pyrazolo[3,4-b]pyridin-1-yl}methyl)-1-oxo-2,3-dihydro-1H-isoindol-2-yl]piperidine-2,6-dione] was tested, and the pEC50 (CAL-51 cells) was 8.20, the “CAL-51 Prolif Ymin” value (CAL-51 cells) was 38.16 and the DC50 (FAK) was 9.57 nM. For the same compound, the “FAK HiBiT Ymin” value (FAK) was 12.82.

In the case of `Cc1nc2c(-c3ccc(C(F)(F)F)cc3Cl)cc(N3CC(F)C3)nc2n1Cc1ccc2c(c1)CN(C1CCC(=O)NC1=O)C2=O` (stereo not shown) [Example 20, 3-(5-((7-(2-chloro-4-(trifluoromethyl)phenyl)-5-(3-fluoroazetidin-1-yl)-2-methyl-3H-imidazo[4,5-b]pyridin-3-yl)methyl)-1-oxoisoindolin-2-yl)piperidine-2,6-dione], the pEC50 (CAL-51 cells) was 9.43, the “CAL-51 Prolif Ymin” value (CAL-51 cells) was 24.38 and the DC50 (FAK) was 0.89 nM. For the same compound, the “FAK HiBiT Ymin” value (FAK) was 7.90.

With `O=C1CCC(N2Cc3cc(Cn4ncc5c(-c6ncc(OCC(F)(F)F)cc6Cl)cc(N6CC(F)C6)nc54)ccc3C2=O)C(=O)N1` (stereo not shown) [Example 59, 3-[5-({4-[3-chloro-5-(2,2,2-trifluoroethoxy)pyridin-2-yl]-6-(3-fluoroazetidin-1-yl)-1H-pyrazolo[3,4-b]pyridin-1-yl}methyl)-1-oxo-2,3-dihydro-1H-isoindol-2-yl]piperidine-2,6-dione] the pEC50 (CAL-51 cells) was 9.06, the “CAL-51 Prolif Ymin” value (CAL-51 cells) was 28.60 and the DC50 (FAK) was 3.54 nM. For the same compound, the “FAK HiBiT Ymin” value (FAK) was 10.50.

For `O=C1CCC(N2Cc3cc(Cn4ncc5c(-c6ncc(F)cc6Cl)c(F)c(N6CC(F)C6)nc54)ccc3C2=O)C(=O)N1` (stereo not shown) [Example 31, 3-(5-{[4-(3-chloro-5-fluoropyridin-2-yl)-5-fluoro-6-(3-fluoroazetidin-1-yl)-1H-pyrazolo[3,4-b]pyridin-1-yl]methyl}-1-oxo-2,3-dihydro-1H-isoindol-2-yl)piperidine-2,6-dione], the pEC50 (CAL-51 cells) was 8.41, the “CAL-51 Prolif Ymin” value (CAL-51 cells) was 34.80 and the DC50 (FAK) was 0.76 nM. The “FAK HiBiT Ymin” value (FAK) was 8.92.

For `O=C1CCC(N2Cc3cc(Cn4ncc5c(-c6ncc(C(F)(F)F)cc6Cl)cc(N6CCCC6)nc54)ccc3C2=O)C(=O)N1` (stereo not shown) [Example 11, 3-[5-({4-[3-chloro-5-(trifluoromethyl)pyridin-2-yl]-6-(pyrrolidin-1-yl)-1H-pyrazolo[3,4-b]pyridin-1-yl}methyl)-1-oxo-2,3-dihydro-1H-isoindol-2-yl]piperidine-2,6-dione], the pEC50 (CAL-51 cells) was 9.47, the “CAL-51 Prolif Ymin” value (CAL-51 cells) was 22.89 and the DC50 (FAK) was 0.64 nM. The “FAK HiBiT Ymin” value (FAK) was 6.28.

In the case of `COc1cc(F)cnc1-c1cc(N2CC(F)C2)nc2c1cnn2Cc1ccc2c(c1)CN(C1CCC(=O)NC1=O)C2=O` (stereo not shown) [Example 130, 3-(5-{[4-(5-fluoro-3-methoxypyridin-2-yl)-6-(3-fluoroazetidin-1-yl)-1H-pyrazolo[3,4-b]pyridin-1-yl]methyl}-1-oxo-2,3-dihydro-1H-isoindol-2-yl)piperidine-2,6-dione], the pEC50 (CAL-51 cells) was 5.41, the “CAL-51 Prolif Ymin” value (CAL-51 cells) was 76.29 and the DC50 (FAK) was ≥ 1000 nM. The “FAK HiBiT Ymin” value (FAK) was 84.84.

`Cc1cc(OC(C)C)cnc1-c1cc(N2CC(F)C2)nc2c1cnn2Cc1ccc2c(c1)CN(C1CCC(=O)NC1=O)C2=O` (stereo not shown) [Example 80, 3-(5-{[6-(3-fluoroazetidin-1-yl)-4-[3-methyl-5-(propan-2-yloxy)pyridin-2-yl]-1H-pyrazolo[3,4-b]pyridin-1-yl]methyl}-1-oxo-2,3-dihydro-1H-isoindol-2-yl)piperidine-2,6-dione] was tested, and the pEC50 (CAL-51 cells) was 8.77, the “CAL-51 Prolif Ymin” value (CAL-51 cells) was 27.48 and the DC50 (FAK) was 9.06 nM. For the same compound, the “FAK HiBiT Ymin” value (FAK) was 5.83.

With `O=C1CC[C@H](N2Cc3cc(Cn4ncc5c(-c6ncc(C(F)(F)F)cc6Cl)cc(N6CC(O)C6)nc54)ccc3C2=O)C(=O)N1` [Example 113, (3S)-3-[5-({4-[3-chloro-5-(trifluoromethyl)pyridin-2-yl]-6-(3-hydroxyazetidin-1-yl)-1H-pyrazolo[3,4-b]pyridin-1-yl}methyl)-1-oxo-2,3-dihydro-1H-isoindol-2-yl]piperidine-2,6-dione] the pEC50 (CAL-51 cells) was 8.03, the “CAL-51 Prolif Ymin” value (CAL-51 cells) was 38.05 and the DC50 (FAK) was 51.8 nM. For the same compound, the “FAK HiBiT Ymin” value (FAK) was 21.00.

With `O=C1CC[C@@H](N2Cc3cc(Cn4ncc5c(-c6ncc(C(F)(F)F)cc6Cl)cc(N6CC(F)C6)nc54)ccc3C2=O)C(=O)N1` (single isomer, unassigned) [Example 87] the pEC50 (CAL-51 cells) was 8.66, the “CAL-51 Prolif Ymin” value (CAL-51 cells) was 38.15 and the DC50 (FAK) was 13 nM. The “FAK HiBiT Ymin” value (FAK) was 5.32.

For `CN1CCC(Nc2cc(-c3ncc(C(F)(F)F)cc3Cl)c3cnn(Cc4ccc5c(c4)CN(C4CCC(=O)NC4=O)C5=O)c3n2)C1` (stereo not shown) [Example 128, 3-[5-({4-[3-chloro-5-(trifluoromethyl)pyridin-2-yl]-6-[(1-methylpyrrolidin-3-yl)amino]-1H-pyrazolo[3,4-b]pyridin-1-yl}methyl)-1-oxo-2,3-dihydro-1H-isoindol-2-yl]piperidine-2,6-dione], the pEC50 (CAL-51 cells) was 6.72, the “CAL-51 Prolif Ymin” value (CAL-51 cells) was 83.49 and the DC50 (FAK) was 292 nM. The “FAK HiBiT Ymin” value (FAK) was 58.00.

`O=C1CCC(N2Cc3cc(Cn4ncc5c(-c6ncc(C(F)(F)F)cc6Cl)cc(N6CC(F)C6)nc54)ccc3C2=O)C(=O)N1` (stereo not shown) [Example 34, 3-[5-({4-[3-chloro-5-(trifluoromethyl)pyridin-2-yl]-6-(3-fluoroazetidin-1-yl)-1H-pyrazolo[3,4-b]pyridin-1-yl}methyl)-1-oxo-2,3-dihydro-1H-isoindol-2-yl]piperidine-2,6-dione] was tested, and the pEC50 (CAL-51 cells) was 8.97, the “CAL-51 Prolif Ymin” value (CAL-51 cells) was 26.10 and the DC50 (FAK) was 0.91 nM. The “FAK HiBiT Ymin” value (FAK) was 8.98.

In the case of `CCOc1cnc(-c2cc(N3CC(F)C3)nc3c2cnn3Cc2ccc3c(c2)CN(C2CCC(=O)NC2=O)C3=O)c(C#N)c1` (stereo not shown) [Example 46, 2-(1-{[2-(2,6-dioxopiperidin-3-yl)-1-oxo-2,3-dihydro-1H-isoindol-5-yl]methyl}-6-(3-fluoroazetidin-1-yl)-1H-pyrazolo[3,4-b]pyridin-4-yl)-5-ethoxypyridine-3-carbonitrile], the pEC50 (CAL-51 cells) was 9.04, the “CAL-51 Prolif Ymin” value (CAL-51 cells) was 30.10 and the DC50 (FAK) was 1.79 nM. For the same compound, the “FAK HiBiT Ymin” value (FAK) was 8.57.
